Article PMC12290673, “Antileishmanial and Antitoxoplasmal Activities of 1,4-Dihydropyridines” (ACS Omega, 2025)
Where two headings read alike, the source gives them in different places.

How the values were obtained:
[1] = system: T. gondii tachyzoites (RH strain); assay: Anti-Toxoplasma activity (infection index in Vero cells, 72 h); format: cell-based, Toxoplasma gondii; conditions: mean ± SD
Experimental: Tachyzoites of the T. gondii RH strain were cultivated in Vero cells according to a published method. Complete RPMI 1640 medium (Invitrogen, USA) with 10% fetal bovine serum (FBS, Invitrogen, USA) was used to culture Vero cells in 96-well plates (5 × 10^3 cells/well in 200 μL of medium), which were incubated at 37 °C and under 5% CO2 for 24 h. This was followed by washing with phosphate-buffered saline (PBS) to remove the medium. Then, RPMI 1640 medium with 2% FBS containing T. gondii tachyzoites (RH strain) at a ratio of 5 (parasite): 1 (Vero cells) was added. After incubation at 37 °C and under 5% CO2 for 5 h, the cells were washed with PBS and overlaid with medium containing one of the tested compounds or atovaquone (ATO) at 50, 25, 12.5, 6.25, 3.13, 1.65, 0.75, or 0.37 μg mL^–1.
After incubation at 37 °C and under 5% CO2 for 72 h, the cells were stained with 1% toluidine before being examined under an inverted photomicroscope (MCD-400, Leica, Japan) to determine the T. gondii infection index (number of infected cells from 200 tested cells). The experiment was performed in triplicate.

[2] = system: macrophages; assay: Cytotoxicity assay (MTT), macrophages; format: cell-based, BALB/c mouse; conditions: Mus musculus, Macrophage; 72 h, mean ± SD; read-out: IC50 macro
Experimental: (§1) Female BALB/c mouse peritoneal macrophages (6–8 weeks old) were used to culture L. major amastigotes to assess the activity of the compounds against amastigotes. Briefly, 1 mL of 3% Brewer’s thioglycollate medium/mouse was injected into the peritoneal cavity. After 4 days, the abdominal skin was removed to expose the peritoneal wall. Then, 3 mL of RPMI 1640 medium was injected before cells were collected by aspiration, whereupon 96-well plates containing RPMI 1640 medium with 10% FBS were used to culture 5 × 10^4 cells/well, which were incubated at 37 °C under 5% CO2 for 4 h. After washing with PBS, RPMI 1640 medium containing 5 × 10^5 promastigotes were added to each well. Next, the cells were incubated at 37 °C under humidified 5% CO2 for 24 h to enhance infection and differentiation of amastigotes. Washing with PBS several times removed free promastigotes. Fresh complete RPMI 1640 medium containing one of the tested compounds or AmB at the desired final concentration (50, 25, 12.5, 6.25, 3.13, 1.65, 0.75, or 0.37 μg mL^–1) was added and incubated at 37 °C under a humidified 5% CO2 atmosphere for 72 h. DMSO (1%), only in complete RPMI media, was used as the negative control. The percentage of infected macrophages was assessed microscopically after the medium was removed, followed by washing with PBS, fixation with methanol, and staining with Giemsa. The reading was performed in triplicate. Handling of the laboratory animals followed the instructions and rules of the Committee of Research Ethics, Deanship of Scientific Research, Qassim University, permission number 20–03–20.
(§2) The MTT colorimetric assay was conducted to assess the cytotoxicity of the compounds according to a method described previously. Briefly, Vero cells or macrophages were cultured in 96-well plates (5 × 10^3 cells/well/200 μL) in RPMI 1640 medium with 10% FBS at 37 °C and under 5% CO2 for 24 h. Thereafter, PBS was used to wash the cells. Then, the compounds in RPMI complete medium with 10% FBS (at varying concentrations of 50, 25, 12.5, 6.25, 3.13, 1.65, 0.75, or 0.37 μg mL^–1) were added to 96-well plates and incubated for 72 h. Cells treated with a medium containing only DMSO (1%) were used as the negative control. After washing, MTT (1 mg mL^–1 in RPMI 1640 medium) was added to each well. The cells were incubated for 4 h, and the supernatant was removed. Next, 150 μL of DMSO was added, and a microplate absorbance spectrophotometer was applied for colorimetric analysis (λ = 540 nm). Cytotoxic effects were expressed by IC50 values (concentration that caused a 50% reduction of viable cells). The experiment was performed in triplicate.

[3] = system: Vero cells; assay: Cytotoxicity assay (MTT), Vero cells; format: cell-based, African Green Monkey; conditions: Chlorocebus sabaeus, 72 h, mean ± SD
Experimental: as §2

[4] = system: L. major amastigotes; assay: Activity against L. major amastigotes in peritoneal macrophages (percentage of infected macrophages, Giemsa, 72 h); format: cell-based, Leishmania major; conditions: intracellular amastigotes, mean ± SD, read-out: EC50 L. major ama
Experimental: (§3) L. major promastigotes were isolated and maintained according to a described method. BALB/c mice were injected at the hind footpads with 1 × 10^6 L. major metacyclic promastigotes. L. major amastigotes were collected from the infected mice. After 8 weeks had elapsed since inoculation, Schneider’s medium (Invitrogen, USA) containing antibiotics and 10% FBS was used to transform isolated amastigotes into promastigotes by incubation at 26 °C. Amastigote-derived promastigotes with less than five in vitro passages were only used for infection.
as §1

[5] = system: L. major promastigotes; assay: Activity against L. major promastigotes (MTT, 72 h); format: cell-based, Leishmania major; conditions: mean ± SD, read-out: EC50 L. major prom
Experimental: as §3
To assess the activity of the compounds against L. major promastigotes, 10^6 promastigotes/mL were cultured in 96-well plates in Schneider’s medium with 10% FBS. Then, the compounds or amphotericin B (AmB) were added to obtain the final concentrations (50, 25, 12.5, 6.25, 3.13, 1.65, 0.75, or 0.37 μg mL^–1). Negative control wells contained cultures with DMSO (1%) only. Plates were incubated at 26 °C for 72 h to evaluate the antiproliferative effect. The colorimetric MTT method was used to count viable promastigotes under a microplate absorbance spectrophotometer (xMark, Bio-Rad, USA) at 570 nm. The experiment was performed in triplicate.

[6] = system: L. amazonensis promastigotes; parameters: method as in Oliveira and co-workers; conditions: ref Oliveira and co-workers, cited from earlier work

| EC50 ([4]; Leishmania major) [µM] | EC50 ([5]; Leishmania major) [µM] | EC50 [5] [µM] | EC50 [4] [µM] | SMILES | EC50 ([1]; Toxoplasma gondii, Vero) [µM] | IC50 [2] [µM] | IC50 [3] [µM] | activity against L. amazonensis promastigotes [6] | IC50 ([6]; read-out: IC50 against L. amazonensis promastigotes) [µM] | EC50 [1] [µM] |
| --- | --- | --- | --- | --- | --- | --- | --- | --- | --- | --- |
| > 56.3 | > 56.3 | – | – | CCOC(=O)C1=C(C)NC2=C(C(=O)CC(C)(C)C2)C1c1ccc(OC)cc1 (stereo not drawn) [Compound 3] | > 56.3 | 38.7 ± 6.8 | 49.8 ± 8.9 | – | – | – |
| > 60.6 | < 50 | 47.5 ± 6.2 | – | CCOC(=O)C1=C(C)NC2=C(C(=O)CC(C)(C)C2)C1c1ccc2c(c1)OCO2 (stereo not drawn) [Compound 12] | 30.3 ± 5.2 | 42.5 ± 7.2 | 14.9 ± 2.6 | inactive | – | – |
| 23.3 ± 3.4 | > 46.7 | – | – | CCOC(=O)C1=C(C)NC2=C(C(=O)CC(C)(C)C2)C1c1ccc(OCc2ccccc2)cc1 (racemic) [Compound 4, (±)-ethyl 4-(4-(benzyloxy)phenyl)-2,7,7-trimethyl-5-oxo-1,4,5,6,7,8-hexahydroquinoline-3-carboxylate] | 3.1 ± 0.4 | 25.1 ± 3.7 | 17.5 ± 3 | – | – | – |
| – | – | – | – | C[C@@H]1[C@H](O)[C@@H](C)/C=C/C=C/C=C/C=C/C=C/C=C/C=C/[C@H](O[C@@H]2O[C@H](C)[C@@H](O)[C@H](N)[C@@H]2O)C[C@@H]2O[C@](O)(C[C@@H](O)C[C@@H](O)[C@H](O)CC[C@@H](O)C[C@@H](O)CC(=O)O[C@H]1C)C[C@H](O)[C@H]2C(=O)O [AmB, amphotericin B, reference compound] | – | – | 10.3 ± 1.2 | – | – | – |
| 21 ± 3.9 | – | – | – | CCOC(=O)C1=C(C)NC2=C(C(=O)CC(C)(C)C2)C1c1c(OC)cc(OC)cc1OC (stereo not drawn) [Compound 14] | > 48.4 | 16.8 ± 3.1 | 22.8 ± 3.3 | inactive | – | – |
| > 48.4 | > 48.4 | – | – | CCOC(=O)C1=C(C)NC2=C(C(=O)CC(C)(C)C2)C1c1cc(OC)c(OC)c(OC)c1 (stereo not drawn) [Compound 13] | > 48.4 | > 48.4 | > 48.4 | – | 24.6 | – |
| > 54 | > 54 | – | – | CCOC(=O)C1=C(C)NC2=C(C(=O)CC(C)(C)C2)C1c1ccc(O)c(OC)c1 (stereo not drawn) [Compound 11] | 26.5 ± 3.6 | 48 ± 8.1 | 45.1 ± 7.9 | – | – | – |
| > 47.8 | > 47.8 | – | – | CCOC(=O)C1=C(C)NC(C)=C(C(=O)OCC)C1c1ccc(OCc2ccccc2)cc1 [Compound 19] | > 47.8 | 43.4 ± 7.5 | 33.5 ± 6.2 | – | – | – |
| > 63.1 | > 63.1 | – | – | CCOC(=O)C1=C(C)NC(C)=C(C(=O)OCC)C1c1ccccc1 [Compound 17] | < 50 | > 63.1 | 60.1 ± 10.6 | – | – | 49.8 ± 6.5 |
| > 55.4 | > 55.4 | – | – | CCOC(=O)C1=C(C)NC(C)=C(C(=O)OCC)C1c1ccc(O)c(OC)c1 [Compound 23] | < 50 | 40.5 ± 6.8 | 22.1 ± 3.2 | – | – | 29.8 ± 4.8 |
| > 61.3 | > 61.3 | – | – | CCOC(=O)C1=C(C)NC2=C(C(=O)CC(C)(C)C2)C1c1ccccc1 (stereo not drawn) [Compound 1] | > 61.3 | > 61.3 | > 61.3 | – | – | – |
| > 58.8 | > 58.8 | – | – | CCOC(=O)C1=C(C)NC2=C(C(=O)CC(C)(C)C2)C1c1ccc(C)cc1 (stereo not drawn) [Compound 2] | > 58.8 | 47.8 ± 7.6 | 52.9 ± 9.8 | – | – | – |
| 26.3 ± 3.7 | > 54.1 | – | – | CCOC(=O)C1=C(C)NC2=C(C(=O)CC(C)(C)C2)C1c1cccc([N+](=O)[O-])c1 (stereo not drawn) [Compound 10] | 16.4 ± 2.5 | 24.5 ± 3.6 | 10.7 ± 2.1 | – | – | – |
| > 55.6 | > 55.6 | – | – | CCOC(=O)C1=C(C)NC2=C(C(=O)CC(C)(C)C2)C1c1cccc(Cl)c1 (stereo not drawn) [Compound 8] | > 55.6 | > 55.6 | > 55.6 | – | – | – |
| > 49.6 | < 50 | 42.7 ± 8 | – | CCOC(=O)C1=C(C)NC(C)=C(C(=O)OCC)C1c1cc(OC)c(OC)c(OC)c1 [Compound 24] | > 49.6 | 34.1 ± 5.5 | 14.8 ± 2.6 | inactive | – | – |
| > 49.7 | > 49.7 | – | – | CCOC(=O)C1=C(C)NC2=C(C(=O)CC(C)(C)C2)C1c1ccc(Br)cc1 (stereo not drawn) [Compound 6] | 23.4 ± 3.5 | 23.4 ± 3.5 | 17.4 ± 2.9 | – | – | – |
| 13.7 | > 58.2 | – | 10.6 ± 2.1 | CCOC(=O)C1=C(C)NC2=C(C(=O)CC(C)(C)C2)C1c1ccccc1[N+](=O)[O-] (racemic) [Compound 9, (±)-ethyl 2,7,7-trimethyl-4-(2-nitrophenyl)-5-oxo-1,4,5,6,7,8-hexahydroquinoline-3-carboxylate] | 12 ± 1.9 | 12 ± 1.9 | 4.5 ± 0.7 | – | – | – |
| > 51.3 | < 50 | 40 ± 6.4 | – | CCOC(=O)C1=C(C)NC2=C(C(=O)CC(C)(C)C2)C1c1ccco1 (stereo not drawn) [Compound 15] | > 51.3 | > 51.3 | > 51.3 | – | – | – |
| 31.8 ± 5.4 | > 49.3 | – | – | CCOC(=O)C1=C(C)NC2=C(C(=O)CC(C)(C)C2)C1c1cccs1 (stereo not drawn) [Compound 16] | 8.1 ± 1.3 | 29.9 ± 5.1 | 12.6 ± 2.1 | – | – | – |
| > 50.9 | > 50.9 | – | – | CCOC(=O)C1=C(C)NC(C)=C(C(=O)OCC)C1c1ccc(Br)cc1 [Compound 20] | > 50.9 | 44.8 ± 8.2 | 35 ± 5.9 | – | – | – |
| > 55.6 | < 50 | 46.5 ± 7.7 | – | CCOC(=O)C1=C(C)NC(C)=C(C(=O)OCC)C1c1cccc([N+](=O)[O-])c1 [Compound 22] | – | 46.5 ± 7.4 | 29.9 ± 4.4 | inactive | – | – |
| > 57.9 | > 57.9 | – | – | CCOC(=O)C1=C(C)NC(C)=C(C(=O)OCC)C1c1ccc(OC)cc1 [Compound 18] | > 57.9 | > 57.9 | 45.4 ± 7.8 | – | – | – |
| > 54.4 | > 54.4 | – | – | CCOC(=O)C1=C(C)NC2=C(C(=O)CC(C)(C)C2)C1c1ccc(N(C)C)cc1 (stereo not drawn) [Compound 5] | 29.5 ± 4.1 | 49.9 ± 7.4 | 49.4 ± 8.8 | – | – | – |
| > 59.9 | > 59.9 | – | – | CCOC(=O)C1=C(C)NC(C)=C(C(=O)OCC)C1c1cccc(F)c1 [Compound 21] | > 59.9 | > 59.9 | > 59.9 | – | – | – |
